# Results as given in patent publication US20090092631A1, “GLYCOSYLATED SPECIFICITY EXCHANGERS THAT INDUCE AN ANTIBODY DEPENDENT CELLULAR CYTOTOXICITY (ADCC) RESPONSE” (priority 2007, published 2009).
# Test system: human Gal-alpha1,3-Gal-specific antibodies
# Assay: Glycosylated peptide competitive assay on Gal-BSA coated plates with human sera IB72
# Format: binding
# Conditions: mixed with human sera, positive control
# Method: To further evaluate the ability of the glycosylated specificity exchangers to bind to a pathogen, a glycosylated peptide competitive assay was performed using the most reactive human sera (IB72). In brief, Gal-alpha-1,3-Gal-labeled bovine serum albumin (Gal-BSA) was coated onto 96-well microplates in sodium carbonate buffer (pH: 9.6) at +4° C. overnight. Dilutions of human sera and dilutions of glyco-peptides (glycosylated HIV-specific ligand/receptor specificity exchangers or Gal-BSA) or non-glycosylated peptides (HIV-specific ligand/receptor specificity exchangers or BSA) were preincubated in phosphate-buffered saline (PBS) containing 1% bovine albumin, 2% goat serum and 0.05% Tween 20 at 37° C. for 1 h. The mixture was then added to the coated plates and incubated at 37° C. for 1 h, then washed 3 times with phosphate-buffered saline (PBS) containing 0.05% Tween 20 (pH: 7.4).
# Bound antibodies were indicated with goat anti-human polyvalent Ig, conjugated with alkaline phosphatase. The plates were incubated and washed as described above. Plates were developed with phosphatase substrate at room temperature for 30 min, stopped with 1 M NaOH. Optical density (OD) at 405 nm/650 nm was determined to quantify the inhibition. […] Thus, specificity exchangers that bind Gal-alpha1,3-Gal-specific antibodies had been generated. […]
substance,measurement,value
"Gal-alpha-1,3-Gal-labeled bovine serum albumin [Gal-BSA]",inhibition of human antibody binding to Gal-BSA,100%
